Measurements from patent publication US5084469A, “New substituted benzothiazolinones” (Adir et Compagnie, priority 1989, dated 1992).

Test: Analgesic activity (Siegmund test, phenyl-p-benzoquinone writhing)
Format: in vivo
Conditions: Mus musculus; oral, mice, 1 hour before i.p. phenyl-p-benzoquinone; writhing counted 5th to 10th minute; read-out: ED50 (dose producing a 50% decrease in the number of writhing movements)
Protocol: The activity against pain was investigated in mice (20-25 g) according to a protocol derived from the technique described by SIEGMUND (SIEGMUND E.A., R.A., CADMUS & GOLU, J. Pharm. Exp. Ther. 119, […], 1954). The mice, randomized in batches of 12 animals, received the treatment orally (excipient for the controls) 1 hour before the intraperitoneal injection of a 0.02% aqueousalcoholic solution of phenyl-p-benzoquinone (Sigma). The writhing movements are counted between the 5th and 10th minute after injection.
The percentage activity obtained was evaluated for each dose (% decrease in the number of writhing movements in the treated animals relative to the controls). An ED50, the dose producing a 50% activity, was determined for each product.

For `O=c1[nH]c2ccc(Cc3ccccc3)cc2s1` [Example 1, 6-Benzylbenzothiazolinone], which ED50 is on record?
The ED50 was about 2 mg/kg.
